Legend:
[1] = test system: subjects with Type-2 Diabetes Mellitus (T2DM); experiment: Oral glucose tolerance test (OGTT): serum glucose pharmacodynamic response; format: in vivo, human; settings: baseline corrected, after 75-gram OGTT 30 min post-dose, Days 5, 10, 15
Method: (§1) On Days 5, 10 and 15, a 75-gram glucose solution (oral glucose tolerance test, OGTT) was administered 30 min post-drug administration. No breakfast was provided.
(§2) Pharmacodynamic (PD) responses, i.e., serum levels of glucose, insulin and C-peptide and plasma levels of glucagon, were evaluated on Days 5, 10 and 15: pre-dose (within 60 min prior to glucose intake) and at 0.5, 1, 1.5, 2, 2.5, 3 and 4 h post-glucose intake. Urine was collected for urinary glucose excretion on Days 5, 10 and 15: pre-dose (for bladder emptying only, no pre-dose glucose measurement), and over a series of intervals (0-2 h, 2-4 h, 4-6 h, 6-8 h, 8-12 h and 12-24 h post-dose).

[2] = test system: subjects with Type-2 Diabetes Mellitus (T2DM); experiment: Oral glucose tolerance test (OGTT): serum C-peptide pharmacodynamic response; format: in vivo, human; settings: baseline corrected, after 75-gram OGTT, Days 5, 10, 15
Method: as §1, §2

[3] = in vivo
Method: This phase I study accessed the pharmacokinetic interaction between dorzagliatin and empagliflozin in T2DM subjects.
Sixteen eligible subjects were enrolled and 15 of them completed the study.
All subjects received: (i) empagliflozin (25 mg, QD) on Days 1-5; and empagliflozin was taken 60 min prior to meals (except on Day 5, when it was administered 30 min before glucose intake); (ii) empagliflozin (25 mg, QD) and dorzagliatin (75 mg, BID) on Days 6-10 (only the morning dose on Day 10); and empagliflozin and dorzagliatin were taken 60 min prior to meals (except on Day 10, when they were administered 30 min before glucose intake); or (iii) dorzagliatin 75 mg BID on Days 11-15 (only the morning dose on Day 15); and dorzagliatin was taken 60 min prior to meals (except on Day 15, when it was administered 30 min before glucose intake).
Blood samples for the determination of dorzagliatin and empagliflozin concentrations and corresponding pharmacokinetic (PK) analysis were collected at the following time points on Days 5, 10 and 15: pre-dose (within 30 min prior to drug dosing) and at 0.25, 0.5, 1, 1.5, 2, 3, 4, 6, 8, 10, 12, 18 and 24 h post-dose. […]
The plasma concentration-time data for dorzagliatin and empagliflozin were analyzed using non-compartmental methods to calculate PK parameters.

| Structure (SMILES) | Glucose response AUEC0-4 h, mean [1] [mg·h/dL] | Glucose response CEav, mean [1] [mg/dL] | Glucose response CEmax, mean [1] [mg/dL] | C-peptide response AUEC0-4 h, mean [2] [ng·h/mL] | C-peptide response CEav, mean [2] [ng/mL] | C-peptide response CEmax, mean [2] [ng/mL] | effect of dorzagliatin on empagliflozin PK parameters (drug-drug interaction) [3] | effect of empagliflozin on dorzagliatin PK parameters (drug-drug interaction) [3] |
| --- | --- | --- | --- | --- | --- | --- | --- | --- |
| CC(C)C[C@@H](C(=O)Nc1ccn(C[C@@H](O)CO)n1)N1CC(Oc2ccccc2Cl)=CC1=O [Dorzagliatin, (S)-2-(4-(2-chlorophenoxy)-2-oxo-2,5-dihydro-1H-pyrrol-1-yl)-N-(1-((R)-2,3-dihydroxypropyl)-1H-pyrazol-3-yl)-4-methylpentanamide] | 364 | 91 | 163 | 13 | 3.2 | 5.5 | did not have a significant effect on empagliflozin PK parameters | – |
| OC[C@H]1O[C@@H](c2ccc(Cl)c(Cc3ccc(OC4CCOC4)cc3)c2)[C@H](O)[C@@H](O)[C@@H]1O (stereo in doubt) [Empagliflozin, (2S,3R,4R,5S,6R)-2-[4-chloro-3({4-[(3S)-oxolan-3-yloxy]phenyl}methyl)phenyl]-6-(hydroxymethyl)oxane-3,4,5-triol] | 452 | 113 | 199 | 11 | 2.7 | 4.7 | – | did not have a significant effect on dorzagliatin PK parameters |

Reference: patent US11813274B2, “Treating untreated or treatment-resistant diabetes with glucokinase activator and sodium-glucose cotransporter-2 inhibitor” (HUA Medicine (Shanghai) Ltd., priority 2020, dated 2023)
